Earlier results in patent US8193207B2, “Lactam compounds and methods of using the same” (Incyte Corporation, priority 2005, dated 2012).

Biological target: T1, 11βHSD1 in the eye (Homo sapiens, UniProt P28845)
T1 construct: host or cells: eye tissue (non-pigmented epithelial cells) of healthy volunteers, in vivo
Conditions: healthy volunteers; after seven days of carbenoxolone treatment

T1 sequence (P28845 whole entry): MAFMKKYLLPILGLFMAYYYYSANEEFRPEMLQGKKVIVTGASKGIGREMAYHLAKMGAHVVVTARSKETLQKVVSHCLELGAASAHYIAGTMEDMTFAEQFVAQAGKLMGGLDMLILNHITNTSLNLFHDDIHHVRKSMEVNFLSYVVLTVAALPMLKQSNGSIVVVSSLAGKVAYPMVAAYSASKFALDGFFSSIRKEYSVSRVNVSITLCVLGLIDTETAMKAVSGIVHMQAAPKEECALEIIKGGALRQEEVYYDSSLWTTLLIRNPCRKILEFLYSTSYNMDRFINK

IOP reduction: 18%
Compound: CC1(C)[C@@H](OC(=O)CCC(=O)O)CC[C@]2(C)[C@H]3C(=O)C=C4[C@@H]5C[C@@](C)(C(=O)O)CC[C@]5(C)CC[C@@]4(C)[C@]3(C)CC[C@@H]12 [carbenoxolone]
